From US6410012B1, “Antimicrobial mediated bacterial DNA delivery” (The United States of America as represented by the …, priority 1997, dated 2002) come the findings set out here.

SMILES strings stand for the structures.

Test [1] has as its system BHK cells. In words: β-galactosidase activity in lysates of BHK cells infected with Shigella strains (plasmid DNA delivery). The test is classed as cell-based, baby hamster. The conditions noted are these: for ability of the antimicrobial to mediate bacterial plasmid DNA delivery: attenuated Shigella flexneri not programmed to lyse, in BHK cells. The protocol: (§1) The protocol used for these experiments consisted of diluting an overnight culture of the bacteria 1 in 50 and allowing it to grow to midlog phase, approximately 2.5 hours. The midlog cultures were then concentrated in Hank's Balanced Salts by centrifugation to approximately 10^9 bacteria per milliliter and a small aliquot was taken to determine the midlog bacterial count. Two milliliters of bacteria were added to the appropriate semi-confluent flask of BHK cells and allowed to incubate for ninety minutes at 37° C. and 5% CO2. After the incubation, the cells were rinsed with Hank's Balanced Salts (Sigma). In most cases the flasks were treated with complete DMEM containing […] gentamicin to kill all extracellular bacteria. Either antibiotic was then added at the designated time.
Harvesting of cells was carried out as follows. At the appropriate time point media was removed from the flasks and the flasks were rinsed thoroughly with Hank's Balanced Salts followed by Edda Twiddy's EDTA. Flasks were then treated with 5 milliliters of Trypsin-EDTA for 5 minutes at 37° C. and 5% CO2 to lift the adherent mammalian cells from the flask. Ten milliliters of room temperature DMEM with serum was added to inactivate the Trypsin-EDTA. The cells were pelleted at 2000 rpm for 12 minutes at room temperature and resuspended in 10 milliliters of phosphate buffered saline (PBS).
A 100 μl aliquot was taken and diluted in 0.1 % Triton X-100 and plated on diaminopimelic acid (DAP) supplemented congo red (Sigma) tryptic soy agar for 15D or TSA without DAP for SC602. The remainder was again pelleted and resuspended in 1.3 ml PM-2 buffer. 30 μl of 10% Triton X-100 was added and the sample was incubated at room temperature and vortexed frequently for ten minutes to lyse the BHK cells. The cellular debris was pelleted for […] at 13500×g and 4° C.
Four hundred microliters of the supernatant was combined with 400 μl of PM-2 buffer in a spectrophotometric cuvette and allowed to equilibrate to 37° C. 200 μl of ONPG reagent is then added to each sample and any applicable standards. The samples were incubated at 37° C. and timed until a vibrant yellow color appeared, at which point the reaction was complete. The absorbance of each sample was measured at 420 nm and recorded. β-galactosidase activity was calculated as Ab420×380/Time (minutes). To determine the total amount of protein present in each assayed sample 200 μl of cold (−20° C.) acetone was added to 50 μl of the above supernatants, vortexed thoroughly and stored at −20° C. for 30 minutes. The samples were then pelleted for 10 minutes at 14000 rpm and the supernatant was discarded. Samples were allowed to dry in a heated evacuating centrifuge and then resuspended in 50 μl dissociation buffer. The protein concentration was then determined using a standard BCA (Pierce) protein determination protocol. Results are reported as β-galactosidase activity per mg of protein.

The test system of test [2] is BHK cells. In words: viable bacterial counts recovered from infected BHK cells. In kind it is cell-based, baby hamster. The protocol:
as §1
Harvesting of cells was carried out as follows. At the appropriate time point media was removed from the flasks and the flasks were rinsed thoroughly with Hank's Balanced Salts followed by Edda Twiddy's EDTA. Flasks were then treated with 5 milliliters of Trypsin-EDTA for 5 minutes at 37° C. and 5% CO2 to lift the adherent mammalian cells from the flask. Ten milliliters of room temperature DMEM with serum was added to inactivate the Trypsin-EDTA. The cells were pelleted at 2000 rpm for 12 minutes at room temperature and resuspended in 10 milliliters of phosphate buffered saline (PBS). […]

Consider `O=C(O)c1cn(C2CC2)c2cc(N3CCNCC3)c(F)cc2c1=O` [ciprofloxacin], for which the “effect on delivery of plasmid DNA by 15D(pCMVβ)” value in test [1] (15D(pCMVβ) infected monolayers treated just after the adherence/invasion step) was “inhibited delivery of the plasmid DNA”. Besides, the “ability of the antimicrobial to mediate bacterial plasmid DNA delivery” value in test [1] (SC602(pCMVβ)) was “unable to mediate DNA delivery”.

As for `CC[C@H]1OC(=O)[C@H](C)[C@@H](O[C@H]2C[C@@](C)(OC)[C@@H](O)[C@H](C)O2)[C@H](C)[C@@H](O[C@@H]2O[C@H](C)C[C@H](N(C)C)[C@H]2O)[C@](C)(O)C[C@@H](C)CN(C)[C@H](C)[C@@H](O)[C@]1(C)O` [azithromycin], the “effect of time of addition on β-galactosidase activity” value in test [1] (addition 1 to 2 hours after adherence/invasion compared to just after, SC602(pCMVβ)) is recorded as “greatly increased the amount of β-galactosidase activity”. In addition, the “ability of the antimicrobial to mediate bacterial plasmid DNA delivery” value in test [1] (SC602(pCMVβ)) is given as “capable of mediating bacterial-based plasmid DNA delivery”. Besides, in test [2] (after the addition of azithromycin to infected BHK cells), the “effect on number of viable bacteria” value is “no dramatic decrease in the number of viable bacteria was detected”.

Take `C[C@@H]1C[C@@H]([C@H](O)CC2CC(=O)NC(=O)C2)C(=O)[C@@H](C)C1` [cyclohexamide]: in test [1] (15D(pCMVβ) infected BHK cells, treated at various times after the adherence/invasion step), the “effect on β-galactosidase activity” value was “inhibition of β-galactosidase activity”. Further, the “loss of viable bacteria” value in test [2] (15D(pCMVβ) infected BHK cells, treatment right after to two hours after the adherence/invasion step) was determined as 1 log.
